{"source": "patent US20070161547A1", "about": "“Modulation of survivin expression” (priority 2003, published 2007)", "note": "Oligonucleotides are written 5' to 3', each unit as a sugar letter and its base; * is a phosphorothioate linkage, no mark a phosphodiester; rarer units and linkages stand in square brackets, end groups in braces. Plain capitals give the bases only. r = 2'-OH (RNA); {P} = phosphate"}
{"system": "human survivin mRNA", "assay": "Inhibition of human survivin mRNA by single-stranded asRNA in HUVEC, real-time quantitative PCR", "format": "cell-based", "design": "concentration or dose not given beside the values", "details": "Table 7", "experimental": "HUVEC were obtained from ATCC and routinely cultured in EBM (Clonetics Corp, Walkersille, Md.) supplemented with SingleQuots supplements. Cells were routinely passaged by trypsinizaiton and dilution when they reached 90% confluence were maintained for up to 15 passages. For cells grown in 96-well plates (10,000 cells/well), wells were washed once with 200 μL OPTI-MEM-1™ reduced-serum medium (Gibco BRL) and then treated with 130 μL of OPTI-MEM-1™ containing 12 μg/mL LIPOFECTIN™ (Gibco BRL) and the desired double-stranded compounds at a final concentration of 25 nM. After 5 hours of treatment, the medium was replaced with fresh medium. Cells were harvested 16 hours after dsRNA treatment, at which time RNA was isolated and target reduction measured by RT-PCR.\nA series of single-stranded olgometric compounds (asRNA) was evaluated for their ability to inhibit human survivin in human umbilical vein endothelial cells (HUVEC). Culture methods used for HUVEC are found, for example, at www.atcc.org.\nData were obtained by real-time quantitative PCR as described in other examples herein.", "units": {"% INHIB, inhibition of human survivin mRNA levels by asRNA oligomeric compounds": "%"}}
{"substance": "347434 (antisense {P}-rU*rA*rA*rG*rG*rA*rA*rC*rC*rU*rG*rC*rA*rG*rC*rU*rC*rA*rG*rA) [compound 347434]", "% INHIB, inhibition of human survivin mRNA levels by asRNA oligomeric compounds": 70}
{"substance": "347435 (antisense {P}-rC*rA*rG*rG*rG*rA*rC*rU*rC*rU*rG*rU*rC*rU*rC*rC*rA*rU*rU*rC) [compound 347435]", "% INHIB, inhibition of human survivin mRNA levels by asRNA oligomeric compounds": 44}
{"substance": "347436 (antisense {P}-rA*rA*rC*rA*rA*rA*rA*rU*rA*rA*rG*rA*rA*rA*rG*rC*rC*rA*rU*rG) [compound 347436]", "% INHIB, inhibition of human survivin mRNA levels by asRNA oligomeric compounds": 51}
{"substance": "347437 (antisense {P}-rG*rC*rU*rA*rU*rU*rC*rU*rG*rU*rG*rA*rA*rU*rU*rA*rA*rC*rA*rA) [compound 347437]", "% INHIB, inhibition of human survivin mRNA levels by asRNA oligomeric compounds": 54}
{"substance": "347438 (antisense {P}-rA*rG*rU*rU*rU*rG*rU*rG*rC*rU*rA*rU*rU*rC*rU*rG*rU*rG*rA*rA) [compound 347438]", "% INHIB, inhibition of human survivin mRNA levels by asRNA oligomeric compounds": 64}
{"substance": "347439 (antisense {P}-rA*rG*rA*rA*rU*rG*rG*rC*rU*rU*rU*rG*rU*rG*rC*rU*rU*rA*rG*rU) [compound 347439]", "% INHIB, inhibition of human survivin mRNA levels by asRNA oligomeric compounds": 62}
{"substance": "347440 (antisense {P}-rU*rC*rC*rA*rC*rC*rU*rG*rA*rA*rG*rU*rU*rC*rA*rC*rC*rC*rC*rG) [compound 347440]", "% INHIB, inhibition of human survivin mRNA levels by asRNA oligomeric compounds": 57}
{"substance": "347441 (antisense {P}-rA*rA*rG*rG*rA*rG*rU*rA*rU*rC*rU*rG*rC*rC*rA*rG*rA*rC*rG*rC) [compound 347441]", "% INHIB, inhibition of human survivin mRNA levels by asRNA oligomeric compounds": 66}
{"substance": "347442 (antisense {P}-rU*rA*rA*rU*rC*rA*rC*rA*rC*rA*rG*rC*rA*rG*rU*rG*rG*rC*rA*rA) [compound 347442]", "% INHIB, inhibition of human survivin mRNA levels by asRNA oligomeric compounds": 66}
{"substance": "347443 (antisense {P}-rG*rU*rG*rC*rC*rC*rC*rG*rC*rG*rG*rC*rU*rC*rA*rC*rU*rG*rG*rG) [compound 347443]", "% INHIB, inhibition of human survivin mRNA levels by asRNA oligomeric compounds": 54}
{"substance": "347444 (antisense {P}-rA*rA*rA*rG*rG*rA*rU*rU*rU*rA*rG*rG*rC*rC*rA*rC*rU*rG*rC*rC) [compound 347444]", "% INHIB, inhibition of human survivin mRNA levels by asRNA oligomeric compounds": 60}
{"substance": "347445 (antisense {P}-rA*rC*rA*rG*rC*rA*rU*rC*rG*rA*rG*rC*rC*rA*rA*rG*rU*rC*rA*rU) [compound 347445]", "% INHIB, inhibition of human survivin mRNA levels by asRNA oligomeric compounds": 53}
{"substance": "347446 (antisense {P}-rA*rC*rA*rG*rA*rC*rA*rC*rA*rC*rG*rG*rC*rC*rU*rG*rC*rA*rG*rC) [compound 347446]", "% INHIB, inhibition of human survivin mRNA levels by asRNA oligomeric compounds": 52}
{"substance": "347447 (antisense {P}-rG*rA*rA*rC*rG*rU*rG*rA*rC*rA*rG*rA*rU*rG*rU*rG*rA*rA*rG*rG) [compound 347447]", "% INHIB, inhibition of human survivin mRNA levels by asRNA oligomeric compounds": 47}
{"substance": "347448 (antisense {P}-rU*rC*rC*rA*rU*rC*rA*rU*rC*rU*rU*rA*rC*rG*rC*rC*rA*rG*rA*rC) [compound 347448]", "% INHIB, inhibition of human survivin mRNA levels by asRNA oligomeric compounds": 58}
{"substance": "347449 (antisense {P}-rG*rG*rC*rG*rA*rA*rU*rC*rA*rA*rA*rU*rC*rC*rA*rU*rC*rA*rU*rC) [compound 347449]", "% INHIB, inhibition of human survivin mRNA levels by asRNA oligomeric compounds": 51}
{"substance": "347450 (antisense {P}-rA*rU*rC*rC*rA*rC*rC*rC*rU*rG*rC*rA*rG*rC*rU*rC*rU*rA*rU*rG) [compound 347450]", "% INHIB, inhibition of human survivin mRNA levels by asRNA oligomeric compounds": 55}
{"substance": "347451 (antisense {P}-rG*rC*rC*rG*rA*rG*rA*rU*rG*rA*rC*rC*rU*rC*rC*rA*rG*rA*rG*rG) [compound 347451]", "% INHIB, inhibition of human survivin mRNA levels by asRNA oligomeric compounds": 59}
